Experimental data reported in PMC11775380, “Discovery of Novel Nav1.7-Selective Inhibitors with the 1H-Indole-3-Propionamide Scaffold for Effective Pain Relief” (Research, 2025).

Target: T1, human Nav1.7 (hNav1.7) (Homo sapiens, UniProt Q15858)
T1 construct: expressed in transfected cells; host or cells: HEK293T
Test: Whole-cell patch-clamp inhibition of Nav1.7 currents in transfected HEK293T cells
Type: cell-based
Settings: for inhibition at 10 µM: HEK-293T, read-out: Inhibitory activity (10 μM)
Experimental: Human embryonic kidney (HEK) 293T (ATCC CRL-3216) and ND7/23 cells (National Collection of Authenticated Cell Cultures SCSP-5026) were cultured under standard conditions (5% CO2, 37 °C) in Dulbecco’s modified Eagle’s medium (DMEM) containing 10% fetal bovine serum and 1% penicillin-streptomycin solution(all from Gibco, Thermo Fisher Scientific, Waltham, MA, USA). When the cells reached 70% to 90% confluence, human Nav1.2 (hNav1.2), human Nav1.3 (hNav1.3), human Nav1.4 (hNav1.4), human Nav1.5 (hNav1.5), and mouse Nav1.6 (mNav1.6) channel plasmids were cotransfected with enhanced green fluorescent protein (eGFP) into HEK293T cells. Additionally, plasmids expressing β1 and β2 subunits tagged with eGFP were cotransfected with the human Nav1.7 (hNav1.7) channel into HEK293T cells. Human Nav1.8 (hNav1.8) was transiently transfected into ND7/23 cells, along with eGFP, using Lipofectamine 2000 (Invitrogen), adhering strictly to the manufacturer’s protocol. For manual patch-clamp experiments, the cells were plated onto glass coverslips and used within 20 to 48 h of transfection.
Whole-cell patch-clamp recordings were conducted at 25 ± 2 °C, utilizing an EPC 10USB patch-clamp amplifier (HEKA Elektronik, Lambrecht, Germany). Pipettes, with access resistance between 2.0 and 3.0 MΩ, were pulled from borosilicate glass capillary tubes using a 2-step vertical microelectrode puller (PC-10, Narishige Group, Tokyo, Japan). Voltage-clamp recordings were obtained with PatchMaster software v2 × 73 (HEKA Elektronik) 5 min after establishing whole-cell configuration, sampled at 20 kHz, and filtered at 5 kHz. To minimize voltage errors, 80% series resistance compensation was applied. Pipettes were filled with 140 mM CsF, 10 mM NaCl, 1 mM EGTA, and 10 mM HEPES (pH=7.4, adjusted with CsOH). The external solution contained 140 mM NaCl, 2 mM CaCl2, 1 mM MgCl2, 5 mM KCl, 10 mM HEPES, and 10 mM glucose (pH=7.4, adjusted with NaOH). IC50 values were determined in HEK293T or ND7/23 cell lines by voltage clamping at −80 mV, followed by stepping to the V1/2 of inactivation for 8 s to facilitate compound binding.

[1] = 10 μM compound, inhibition rate of Nav1.7

T1 sequence (Q15858 whole entry): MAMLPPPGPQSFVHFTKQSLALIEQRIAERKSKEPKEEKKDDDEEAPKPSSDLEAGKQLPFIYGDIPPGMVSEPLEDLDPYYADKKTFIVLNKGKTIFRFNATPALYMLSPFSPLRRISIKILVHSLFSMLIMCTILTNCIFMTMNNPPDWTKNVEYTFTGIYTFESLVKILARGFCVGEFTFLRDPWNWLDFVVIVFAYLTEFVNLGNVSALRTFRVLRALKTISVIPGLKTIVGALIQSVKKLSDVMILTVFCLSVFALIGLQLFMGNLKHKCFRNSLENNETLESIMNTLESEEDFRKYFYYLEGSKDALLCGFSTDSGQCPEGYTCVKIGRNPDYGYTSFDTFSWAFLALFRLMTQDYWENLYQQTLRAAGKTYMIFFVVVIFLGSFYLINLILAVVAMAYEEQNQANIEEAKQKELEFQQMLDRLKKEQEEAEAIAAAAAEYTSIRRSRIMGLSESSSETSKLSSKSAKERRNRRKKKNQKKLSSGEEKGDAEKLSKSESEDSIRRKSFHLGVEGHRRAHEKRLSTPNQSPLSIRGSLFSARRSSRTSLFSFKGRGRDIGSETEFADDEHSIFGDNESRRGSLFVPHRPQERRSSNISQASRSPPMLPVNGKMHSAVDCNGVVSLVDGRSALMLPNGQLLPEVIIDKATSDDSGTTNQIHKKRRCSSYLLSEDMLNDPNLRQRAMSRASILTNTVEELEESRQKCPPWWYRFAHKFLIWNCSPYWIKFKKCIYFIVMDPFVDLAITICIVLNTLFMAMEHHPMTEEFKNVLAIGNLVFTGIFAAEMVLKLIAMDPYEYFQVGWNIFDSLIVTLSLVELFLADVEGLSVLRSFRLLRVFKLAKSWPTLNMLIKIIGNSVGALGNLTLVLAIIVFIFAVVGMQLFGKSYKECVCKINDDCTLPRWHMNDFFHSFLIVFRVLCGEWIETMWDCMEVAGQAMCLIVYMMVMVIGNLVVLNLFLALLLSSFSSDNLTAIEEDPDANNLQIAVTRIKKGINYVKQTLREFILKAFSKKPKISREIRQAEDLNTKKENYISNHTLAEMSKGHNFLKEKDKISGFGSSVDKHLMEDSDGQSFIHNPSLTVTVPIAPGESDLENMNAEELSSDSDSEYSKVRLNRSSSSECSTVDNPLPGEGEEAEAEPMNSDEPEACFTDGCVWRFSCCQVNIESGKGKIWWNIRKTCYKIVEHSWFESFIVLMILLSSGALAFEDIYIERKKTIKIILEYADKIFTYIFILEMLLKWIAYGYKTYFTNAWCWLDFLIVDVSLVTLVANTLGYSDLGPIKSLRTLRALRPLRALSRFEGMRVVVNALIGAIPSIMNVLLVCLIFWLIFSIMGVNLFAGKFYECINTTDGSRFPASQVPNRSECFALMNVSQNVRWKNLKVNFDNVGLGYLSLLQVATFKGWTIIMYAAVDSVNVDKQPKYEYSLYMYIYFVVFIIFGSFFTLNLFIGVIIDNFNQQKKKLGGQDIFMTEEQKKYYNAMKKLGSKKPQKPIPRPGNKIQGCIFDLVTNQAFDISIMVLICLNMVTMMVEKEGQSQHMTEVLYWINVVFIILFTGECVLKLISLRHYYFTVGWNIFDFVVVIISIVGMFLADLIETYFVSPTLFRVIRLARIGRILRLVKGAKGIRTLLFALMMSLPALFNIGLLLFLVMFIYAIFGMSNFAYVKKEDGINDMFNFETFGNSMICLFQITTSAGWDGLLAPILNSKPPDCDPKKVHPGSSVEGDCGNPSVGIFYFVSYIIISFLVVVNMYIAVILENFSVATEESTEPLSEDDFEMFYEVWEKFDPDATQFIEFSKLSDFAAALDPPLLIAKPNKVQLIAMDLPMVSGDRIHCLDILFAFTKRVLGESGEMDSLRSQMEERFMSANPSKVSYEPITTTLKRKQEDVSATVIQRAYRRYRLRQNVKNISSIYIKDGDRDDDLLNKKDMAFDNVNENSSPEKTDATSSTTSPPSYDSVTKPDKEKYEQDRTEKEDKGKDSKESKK
T1 sequence (Q07699 19-218 partner): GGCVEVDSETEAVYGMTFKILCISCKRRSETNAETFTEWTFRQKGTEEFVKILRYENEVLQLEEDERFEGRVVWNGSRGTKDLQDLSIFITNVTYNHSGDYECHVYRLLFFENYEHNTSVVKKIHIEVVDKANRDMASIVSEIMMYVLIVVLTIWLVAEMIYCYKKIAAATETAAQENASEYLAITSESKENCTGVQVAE
T1 sequence (O60939 30-215 partner): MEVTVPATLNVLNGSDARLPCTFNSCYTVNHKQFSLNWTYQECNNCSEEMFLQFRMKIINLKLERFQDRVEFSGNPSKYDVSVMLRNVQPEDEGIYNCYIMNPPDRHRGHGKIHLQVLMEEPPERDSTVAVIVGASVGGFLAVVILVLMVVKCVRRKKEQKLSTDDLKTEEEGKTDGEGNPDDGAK

Compound | inhibition at 10 µM [1] | other results
O=C(CC(c1ccc(F)cc1)c1cn(Cc2ccc(F)cc2)c2ccccc12)NCCc1ccccn1 (stereo not shown) [B19, C1=CC=C2C(=C1)C(=CN2CC3=CC=C(C=C3)F)C(CC(=O)NCCC4=CC=CC=N4)C5=CC=C(C=C5)F] | 22.9% | 
COc1cc(OC)cc(C(CC(=O)NCCc2ccccn2)c2cn(Cc3ccccc3)c3ccccc23)c1 (stereo not shown) [B22, COC1=CC(=CC(=C1)C(CC(=O)NCCC2=CC=CC=N2)C3=CN(C4=CC=CC=C43)CC5=CC=CC=C5)OC] | 45% | 
Cn1cc(C(CC(=O)NCCc2ccccn2)c2cccc(C(F)(F)F)c2)c2ccccc21 (stereo not shown) [B14, CN1C=C(C2=CC=CC=C21)C(CC(=O)NCCC3=CC=CC=N3)C4=CC(=CC=C4)C(F)(F)F] | 24.8% | 
COc1cc(OC)cc(C(CC(=O)NCCc2ccccn2)c2cn(Cc3ccc(F)cc3)c3ccccc23)c1 (stereo not shown) [B26, COC1=CC(=CC(=C1)C(CC(=O)NCCC2=CC=CC=N2)C3=CN(C4=CC=CC=C43)CC5=CC=C(C=C5)F)OC] | 26.1% | 
O=C(C1CCCN1C(=O)c1csc(Nc2ccc(F)cc2)n1)N1CCOCC1 (stereo not shown) [B39, C1CC(N(C1)C(=O)C2=CSC(=N2)NC3=CC=C(C=C3)F)C(=O)N4CCOCC4] | 16.7% | 
COc1ccc(C(CC(=O)NCCc2ccccn2)c2cn(Cc3ccc(F)cc3)c3ccccc23)cc1 (stereo not shown) [B20, COC1=CC=C(C=C1)C(CC(=O)NCCC2=CC=CC=N2)C3=CN(C4=CC=CC=C43)CC5=CC=C(C=C5)F] | 37.5% | 
O=C(CC(c1cccc(C(F)(F)F)c1)c1cn(Cc2ccc(F)cc2)c2ccccc12)NCc1ccncc1 (stereo not shown) [B35, C1=CC=C2C(=C1)C(=CN2CC3=CC=C(C=C3)F)C(CC(=O)NCC4=CC=NC=C4)C5=CC(=CC=C5)C(F)(F)F] | 15.6% | 
(C)C(CC(=O)NCCC1=CC=CC=N1)C2=CN(C3=CC=CC=C32)CC4=CC=CC=C4 [B37] |  | Inhibitory activity (10 μM) [1]: 19.13% ± 16.30%
O=C(CSc1nc(=O)n(Cc2cccnc2)c2c1CCC2)NCc1ccc(F)cc1 [A1, C1CC2=C(C1)N(C(=O)N=C2SCC(=O)NCC3=CC=C(C=C3)F)CC4=CN=CC=C4] | -0.67% | 
Cc1ccc(Cn2cc(C(CC(=O)NCCN(C)C)c3ccc(F)cc3)c3ccccc32)cc1 (stereo not shown) [WN2] | 91.5% | IC50 (−80 mV holding, step to V1/2 of inactivation for 8 s, HEK293T): 730 ± 120 nM
COc1ccc(Cn2cc(C(CC(=O)NCCc3ccccn3)c3ccc(C)cc3)c3ccccc32)cc1 (stereo not shown) [B3, CC1=CC=C(C=C1)C(CC(=O)NCCC2=CC=CC=N2)C3=CN(C4=CC=CC=C43)CC5=CC=C(C=C5)OC] | 14.2% | 
O=C(CC(c1cccc(C(F)(F)F)c1)c1cn(Cc2ccc(F)cc2)c2ccccc12)NCCc1ccccn1 (stereo not shown) [B33, C1=CC=C2C(=C1)C(=CN2CC3=CC=C(C=C3)F)C(CC(=O)NCCC4=CC=CC=N4)C5=CC(=CC=C5)C(F)(F)F] | 19.8% | 
O=C(CN(C(=O)c1ccc(Cl)cc1)C1CC1)Nc1nc(-c2ccccc2)cn1-c1ccccc1 [A4, C1CC1N(CC(=O)NC2=NC(=CN2C3=CC=CC=C3)C4=CC=CC=C4)C(=O)C5=CC=C(C=C5)Cl] | 76.4% | 
O=C(CC(c1cccc(OCc2ccccc2)c1)c1cn(Cc2ccc(F)cc2)c2ccccc12)NCCc1ccccc1 (stereo not shown) [A3, C1=CC=C(C=C1)CCNC(=O)CC(C2=CC(=CC=C2)OCC3=CC=CC=C3)C4=CN(C5=CC=CC=C54)CC6=CC=C(C=C6)F] | 9.09% | 
O=C(CC(c1cccc(Oc2ccccc2)c1)c1cn(Cc2ccc(F)cc2)c2ccccc12)NCCc1ccccn1 (stereo not shown) [B28, C1=CC=C(C=C1)OC2=CC=CC(=C2)C(CC(=O)NCCC3=CC=CC=N3)C4=CN(C5=CC=CC=C54)CC6=CC=C(C=C6)F] | 29.2% | 
COc1ccc(S(=O)(=O)Nc2ccc3c(c2)CCCN3C(=O)c2ccccc2)cc1OC [A2, COC1=C(C=C(C=C1)S(=O)(=O)NC2=CC3=C(C=C2)N(CCC3)C(=O)C4=CC=CC=C4)OC] | 36.6% | 
Cc1cccc(C(CC(=O)NCCC(C)C)c2cn(Cc3ccc(F)cc3)c3ccccc23)c1 (stereo not shown) [B6, CC1=CC(=CC=C1)C(CC(=O)NCCC(C)C)C2=CN(C3=CC=CC=C32)CC4=CC=C(C=C4)F] | 7.88% | 
CC(=O)N1CCc2nc3sc(C(=O)Nc4cccc(C#N)c4)c(N)c3c(C(F)(F)F)c2C1 [A12, CC(=O)N1CCC2=C(C1)C(=C3C(=C(SC3=N2)C(=O)NC4=CC=CC(=C4)C#N)N)C(F)(F)F] | 9.32% | 

Compound | inhibition at 10 µM [1] | other results
O=C(CC(c1ccc(C(F)(F)F)cc1)c1cn(Cc2ccc(F)cc2)c2ccccc12)NCc1ccncc1 (stereo not shown) [B23, C1=CC=C2C(=C1)C(=CN2CC3=CC=C(C=C3)F)C(CC(=O)NCC4=CC=NC=C4)C5=CC=C(C=C5)C(F)(F)F] | 18.2% | 
O=S(=O)(c1ccc(F)cc1)N(c1ccc2c(c1)OCO2)C1CCN(Cc2cccnc2)CC1 [B31, C1CN(CCC1N(C2=CC3=C(C=C2)OCO3)S(=O)(=O)C4=CC=C(C=C4)F)CC5=CN=CC=C5] | 16% | 
COc1ccc(Cn2cc(C(CC(=O)NCCc3ccccn3)c3cccc(Cl)c3)c3ccccc32)cc1 (stereo not shown) [B30, COC1=CC=C(C=C1)CN2C=C(C3=CC=CC=C32)C(CC(=O)NCCC4=CC=CC=N4)C5=CC(=CC=C5)Cl] | 8.62% | 
O=C(CC(c1ccc(C(F)(F)F)cc1)c1cn(Cc2ccccc2)c2ccccc12)NCCc1ccccn1 (stereo not shown) [B32, C1=CC=C(C=C1)CN2C=C(C3=CC=CC=C32)C(CC(=O)NCCC4=CC=CC=N4)C5=CC=C(C=C5)C(F)(F)F] | 16.6% | 
COc1ccc(Cn2cc(C(CC(=O)NCCc3ccccn3)c3ccc(OC)cc3)c3ccccc32)cc1 (stereo not shown) [B29, COC1=CC=C(C=C1)CN2C=C(C3=CC=CC=C32)C(CC(=O)NCCC4=CC=CC=N4)C5=CC=C(C=C5)OC] | 9.42% | 
Cn1cc(C(CC(=O)NCCc2ccccn2)c2ccc(C(F)(F)F)cc2)c2ccccc21 (stereo not shown) [B38, CN1C=C(C2=CC=CC=C21)C(CC(=O)NCCC3=CC=CC=N3)C4=CC=C(C=C4)C(F)(F)F] | 13.9% | 
CCOc1ccc(C2N(c3ccc(Cl)c(Cl)c3)N=C(C(C)=O)N2c2ccc(N3CCN(C(C)=O)CC3)cc2)cc1 (stereo not shown) [A13, CCOC1=CC=C(C=C1)C2N(C(=NN2C3=CC(=C(C=C3)Cl)Cl)C(=O)C)C4=CC=C(C=C4)N5CCN(CC5)C(=O)C] | 15.8% | 
O=C(CC(c1ccc(OCc2ccccc2)cc1)c1cn(Cc2ccc(F)cc2)c2ccccc12)NCCc1ccccn1 (stereo not shown) [B16, C1=CC=C(C=C1)COC2=CC=C(C=C2)C(CC(=O)NCCC3=CC=CC=N3)C4=CN(C5=CC=CC=C54)CC6=CC=C(C=C6)F] | 4.16% | 
CCOc1ccc(C(CC(=O)NCCc2ccccn2)c2cn(Cc3ccc(OC)cc3)c3ccccc23)cc1 (stereo not shown) [B15, CCOC1=CC=C(C=C1)C(CC(=O)NCCC2=CC=CC=N2)C3=CN(C4=CC=CC=C43)CC5=CC=C(C=C5)OC] | 20.5% | 
O=C(Nc1ccccc1C(F)(F)F)c1ccc2c(c1)C(=O)N(Cc1cccnc1)C2=O [A14, C1=CC=C(C(=C1)C(F)(F)F)NC(=O)C2=CC3=C(C=C2)C(=O)N(C3=O)CC4=CN=CC=C4] | 2.68% | 
Cc1ccc(Cn2cc(C(CC(=O)NC3CCCCC3)c3ccc(F)cc3)c3ccccc32)cc1 (stereo not shown) [B9, CC1=CC=C(C=C1)CN2C=C(C3=CC=CC=C32)C(CC(=O)NC4CCCCC4)C5=CC=C(C=C5)F] | 6.85% | 
Brc1ccc(-c2nc(-c3ccc(Oc4ccccc4)cc3)c(-c3ccc(Oc4ccccc4)cc3)[nH]2)cc1 [A9, C1=CC=C(C=C1)OC2=CC=C(C=C2)C3=C(N=C(N3)C4=CC=C(C=C4)Br)C5=CC=C(C=C5)OC6=CC=CC=C6] | 4.44% | 
CCCCNC(=O)CC(c1cccc(C)c1)c1cn(Cc2ccc(F)cc2)c2ccccc12 (stereo not shown) [B7, CCCCNC(=O)CC(C1=CC=CC(=C1)C)C2=CN(C3=CC=CC=C32)CC4=CC=C(C=C4)F] | 1.84% | 
CCN1CCN(C(=O)CC(c2ccc(C(F)(F)F)cc2)c2cn(Cc3ccc(F)cc3)c3ccccc23)CC1 (stereo not shown) [B21, CCN1CCN(CC1)C(=O)CC(C2=CC=C(C=C2)C(F)(F)F)C3=CN(C4=CC=CC=C43)CC5=CC=C(C=C5)F] | 71.4% | 
O=C(CC(c1cccc(Oc2ccc(Cl)cc2)c1)c1cn(Cc2ccc(F)cc2)c2ccccc12)NCCc1ccccn1 (stereo not shown) [B13, C1=CC=C2C(=C1)C(=CN2CC3=CC=C(C=C3)F)C(CC(=O)NCCC4=CC=CC=N4)C5=CC(=CC=C5)OC6=CC=C(C=C6)Cl] | 6.28% | 
Cc1cccc(C(CC(=O)NCCc2ccccc2)c2cn(Cc3ccc(F)cc3)c3ccccc23)c1 (stereo not shown) [B5, CC1=CC(=CC=C1)C(CC(=O)NCCC2=CC=CC=C2)C3=CN(C4=CC=CC=C43)CC5=CC=C(C=C5)F] | 2.93% | 
O=C(CC(c1ccc(F)cc1)c1cn(Cc2ccccc2)c2ccccc12)NC1CC1 (stereo not shown) [B8, C1CC1NC(=O)CC(C2=CC=C(C=C2)F)C3=CN(C4=CC=CC=C43)CC5=CC=CC=C5] | 13.6% | 
CS(=O)(=O)c1ccc2nc(NC(=O)Nc3ccc(Cl)c(Cl)c3)sc2c1 [A11, CS(=O)(=O)C1=CC2=C(C=C1)N=C(S2)NC(=O)NC3=CC(=C(C=C3)Cl)Cl] | 4.91% | 
